According to PubChem BioAssay AID449759 (The Scripps Research Institute Molecular Screening Center, 2010):
The source made the active and inactive calls. How the calls were made is not given here.

System: NIH 3T3 cells, IRF-1 mRNA qPCR, IFNg-stimulated
Experiment: activators of IFNg-induced IRF-1 mRNA expression, late-stage follow-up, counter-screen for STAT1 activator project, SYBR qPCR, NIH 3T3 cells, powder samples (AID 449759)
Conditions: at 10 µM; active compounds read high

Which fold change does the source give for `CCN(CC)c1ccc2cc(C(=O)Nc3ccccn3)c(=O)oc2c1` here?
Its fold change is 0.85 (inactive).

With `CCOC(=O)/C(C#N)=C/c1cc(C)n(-c2ccccc2)c1C` as the compound, how does the fold change read?
Its fold change is 0.7 (inactive).

For `COc1ccc2[nH]c3c(c2c1)CCn1c-3nc2ccccc2c1=O`, which fold change is on record?
The fold change was 0.89 (inactive).

`N#C/C(=C\c1ccc(N2CCOCC2)o1)c1nc2ccccc2[nH]1` was tested. Which fold change did it give?
Its fold change is 0.5 (inactive).

With `Cc1ccc(C(=O)Nc2nc3ccccc3s2)s1` as the compound, how does the fold change read?
Its fold change is 0.93 (inactive).

How did the fold change turn out when `COc1ccc(-c2cc(C)nc3c(-c4ccccc4)cnn23)cc1` was run?
Its fold change is 0.81 (inactive).

`O=C(/C=C/Nc1ccccc1F)c1ccc(Br)cc1` was tested. Which fold change did it give?
The fold change was 0.77 (inactive).

With `COc1ccc(-c2csc(N3C(=O)CNC3=S)n2)cc1` as the compound, how does the fold change read?
The fold change was 0.34 (inactive).
